The source of these data is patent US8853259B2, “Metformin derivatives for treating diabetes and diabetes complications” (priority 2013, dated 2014).

This data set can be described thus: Hygroscopicity of the isolated solid on exposure to air. The note with it: light yellow foamy solid from Method 1; turns into gummy residue on exposure to air. The data set is classed as physicochemical. The method, then: Method 1: Metformin free base (1.29 g, 0.010 mol) was taken in methanol (15 mL) and while stirring L-Glutamic acid (0.74 g, […]) was added as solid. Lipoic acid (1.03 g, […]) was separately dissolved in methanol (15 mL) and added to this mixture through a in-line syringe filter (to remove polymeric material, if any). The mixture was continued to stir for 30 min. […] Metformin.L-Glutamic acid.R-Lipoic acid salt (2.9 g) was obtained as light yellow foamy solid. […] The residue was suspended in acetonitrile (30 mL) and stirred for 18 h. Filtered the pale yellow solid and dried in vacuum for 16 h to get 2.32 g of 3. ^1H NMR (200 MHz, D2O) δ 1.15-2.1 (10H, m), δ 2.1-2.42 (5H, m), δ2.88 (12H, s), δ 2.95-3.12 (1H, m) δ 3.48-3.62 (2H, m); ^13C NMR (200 MHz, D2O) δc 25.86, 27.25, 28.68, 33.81, 34.14, 37.66, 38.34, 40.51, 54.95, 56.93, 158.63, 160.28, 174.80, 181.44, 183.81.

On to “metformin-L-glutamic acid-R (+) lipoic acid salt”, for which the hygroscopicity result is “high hygroscopic”.
